Experimental data reported in publication PMC3694096, “Development of Novel In Vivo Chemical Probes to Address CNS Protein Kinase Involvement in Synaptic Dysfunction” (PLoS ONE, 2013).
Where two headings read alike, the source gives them in different places.

Key:
Experiment in all cases: Kinome profiler screen
Format in all cases: biochemical
[1] = biological target: T1, Ron (Homo sapiens, UniProt Q04912); settings: at 20,000 nM inhibitor; kinase activity remaining
T1 construct: purchased Millipore KinaseProfiler

[2] = biological target: T2, PIP5K1α (Homo sapiens, UniProt Q99755); settings: at 20,000 nM inhibitor; kinase activity remaining
T2 construct: purchased Millipore KinaseProfiler

[3] = biological target: T3, Rsk2 (Homo sapiens, UniProt P51812); settings: at 20,000 nM inhibitor; kinase activity remaining
T3 construct: purchased Millipore KinaseProfiler

[4] = biological target: T4, Src(1-530) (Homo sapiens, UniProt P12931); settings: at 20,000 nM inhibitor; kinase activity remaining
T4 construct: purchased Millipore KinaseProfiler

[5] = biological target: T5, Rsk3 (Homo sapiens, UniProt Q15349); settings: at 20,000 nM inhibitor; kinase activity remaining
T5 construct: purchased Millipore KinaseProfiler

[6] = biological target: T6, CHK2(R145W) (Homo sapiens, UniProt O96017, R145W); settings: at 20,000 nM inhibitor; kinase activity remaining
T6 construct: purchased Millipore KinaseProfiler

[7] = biological target: T7, GCK (Homo sapiens, UniProt Q12851); settings: at 20,000 nM inhibitor; kinase activity remaining
T7 construct: purchased Millipore KinaseProfiler

[8] = biological target: T8, Snk (Homo sapiens, UniProt Q9NYY3); settings: at 20,000 nM inhibitor; kinase activity remaining
T8 construct: purchased Millipore KinaseProfiler

[9] = biological target: T9, Tie2(Y897S) (Homo sapiens, UniProt Q02763, Y897S); settings: at 20,000 nM inhibitor; kinase activity remaining
T9 construct: purchased Millipore KinaseProfiler

[10] = biological target: T10, Met(Y1248C) (Homo sapiens, UniProt P08581, Y1230C); settings: at 20,000 nM inhibitor; kinase activity remaining
T10 construct: purchased Millipore KinaseProfiler

[11] = biological target: T11, ZAP-70 (Homo sapiens, UniProt P43403); settings: at 20,000 nM inhibitor; kinase activity remaining
T11 construct: purchased Millipore KinaseProfiler

[12] = biological target: JNK3 (Homo sapiens, UniProt P53779); settings: for activity at 20 µM: at 20,000 nM inhibitor, kinase activity remaining
[13] = biological target: T12, EphB2 (Homo sapiens, UniProt P29323); settings: for activity at 20 µM: at 20,000 nM inhibitor, kinase activity remaining
T12 construct: purchased Millipore
T12 sequence (P29323 19-1055): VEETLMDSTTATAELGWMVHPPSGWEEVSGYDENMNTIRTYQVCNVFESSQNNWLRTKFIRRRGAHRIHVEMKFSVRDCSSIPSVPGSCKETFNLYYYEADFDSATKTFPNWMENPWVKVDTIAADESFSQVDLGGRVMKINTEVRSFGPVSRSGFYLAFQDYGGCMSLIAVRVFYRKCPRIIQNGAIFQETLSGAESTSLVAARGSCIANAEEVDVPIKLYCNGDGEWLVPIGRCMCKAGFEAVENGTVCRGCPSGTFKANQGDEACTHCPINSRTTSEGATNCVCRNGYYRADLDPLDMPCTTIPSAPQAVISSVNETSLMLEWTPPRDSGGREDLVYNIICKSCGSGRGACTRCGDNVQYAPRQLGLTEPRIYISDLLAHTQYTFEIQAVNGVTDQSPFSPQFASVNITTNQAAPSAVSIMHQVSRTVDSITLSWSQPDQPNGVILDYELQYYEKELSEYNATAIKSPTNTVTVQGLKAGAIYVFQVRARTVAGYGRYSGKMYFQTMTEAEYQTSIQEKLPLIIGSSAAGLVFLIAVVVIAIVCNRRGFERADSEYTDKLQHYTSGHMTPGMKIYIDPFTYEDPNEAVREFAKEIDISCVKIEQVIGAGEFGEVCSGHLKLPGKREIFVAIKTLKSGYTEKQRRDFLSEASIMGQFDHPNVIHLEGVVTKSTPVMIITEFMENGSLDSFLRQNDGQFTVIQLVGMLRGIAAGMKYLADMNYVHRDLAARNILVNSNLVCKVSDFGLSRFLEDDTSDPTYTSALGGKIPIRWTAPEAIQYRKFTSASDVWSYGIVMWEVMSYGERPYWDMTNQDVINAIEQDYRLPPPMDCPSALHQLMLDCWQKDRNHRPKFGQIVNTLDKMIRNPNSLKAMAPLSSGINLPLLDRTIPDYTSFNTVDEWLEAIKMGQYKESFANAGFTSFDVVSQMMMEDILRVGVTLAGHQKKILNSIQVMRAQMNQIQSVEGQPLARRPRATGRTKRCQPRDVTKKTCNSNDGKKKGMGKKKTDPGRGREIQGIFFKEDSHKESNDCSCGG

[14] = biological target: T13, Mnk2 (Homo sapiens, UniProt Q9HBH9); settings: at 20,000 nM inhibitor; kinase activity remaining
T13 construct: purchased Millipore KinaseProfiler

[15] = biological target: T14, VRK2 (Homo sapiens, UniProt Q86Y07); settings: at 20,000 nM inhibitor; kinase activity remaining
T14 construct: purchased Millipore KinaseProfiler

[16] = biological target: T15, EphB4 (Homo sapiens, UniProt P54760); settings: at 20,000 nM inhibitor; kinase activity remaining
T15 construct: purchased Millipore KinaseProfiler

[17] = biological target: T16, JAK2 (Homo sapiens, UniProt O60674); settings: at 20,000 nM inhibitor; kinase activity remaining
T16 construct: purchased Millipore KinaseProfiler

[18] = biological target: T17, PAK2 (Homo sapiens, UniProt Q13177); settings: at 20,000 nM inhibitor; kinase activity remaining
T17 construct: purchased Millipore KinaseProfiler

[19] = biological target: T18, MSK2 (Homo sapiens, UniProt O75676); settings: at 20,000 nM inhibitor; kinase activity remaining
T18 construct: purchased Millipore KinaseProfiler

[20] = biological target: T19, cKit(D816H) (Homo sapiens, UniProt P10721, D816H); settings: at 20,000 nM inhibitor; kinase activity remaining
T19 construct: purchased Millipore KinaseProfiler

[21] = biological target: T20, EphB3 (Homo sapiens, UniProt P54753); settings: at 20,000 nM inhibitor; kinase activity remaining
T20 construct: purchased Millipore KinaseProfiler

[22] = biological target: T21, PI3 Kinase (p110 β/p85α)(m) (Mus musculus, UniProt Q8BTI9); settings: at 20,000 nM inhibitor; kinase activity remaining
T21 construct: purchased Millipore KinaseProfiler

JNK3, sequence (P53779 whole entry): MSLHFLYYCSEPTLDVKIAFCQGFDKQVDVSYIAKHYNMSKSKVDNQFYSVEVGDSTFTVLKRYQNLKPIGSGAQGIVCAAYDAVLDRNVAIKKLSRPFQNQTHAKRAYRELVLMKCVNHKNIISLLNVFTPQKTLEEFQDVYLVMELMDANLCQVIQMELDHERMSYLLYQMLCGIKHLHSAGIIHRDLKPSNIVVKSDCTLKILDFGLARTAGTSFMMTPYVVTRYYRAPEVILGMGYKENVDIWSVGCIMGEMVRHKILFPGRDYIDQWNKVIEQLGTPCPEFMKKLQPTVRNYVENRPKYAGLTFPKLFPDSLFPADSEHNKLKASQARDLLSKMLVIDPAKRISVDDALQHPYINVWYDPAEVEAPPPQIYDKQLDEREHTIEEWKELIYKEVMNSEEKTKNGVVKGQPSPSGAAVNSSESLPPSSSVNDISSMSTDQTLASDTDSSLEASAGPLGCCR
T7 sequence (Q12851 whole entry): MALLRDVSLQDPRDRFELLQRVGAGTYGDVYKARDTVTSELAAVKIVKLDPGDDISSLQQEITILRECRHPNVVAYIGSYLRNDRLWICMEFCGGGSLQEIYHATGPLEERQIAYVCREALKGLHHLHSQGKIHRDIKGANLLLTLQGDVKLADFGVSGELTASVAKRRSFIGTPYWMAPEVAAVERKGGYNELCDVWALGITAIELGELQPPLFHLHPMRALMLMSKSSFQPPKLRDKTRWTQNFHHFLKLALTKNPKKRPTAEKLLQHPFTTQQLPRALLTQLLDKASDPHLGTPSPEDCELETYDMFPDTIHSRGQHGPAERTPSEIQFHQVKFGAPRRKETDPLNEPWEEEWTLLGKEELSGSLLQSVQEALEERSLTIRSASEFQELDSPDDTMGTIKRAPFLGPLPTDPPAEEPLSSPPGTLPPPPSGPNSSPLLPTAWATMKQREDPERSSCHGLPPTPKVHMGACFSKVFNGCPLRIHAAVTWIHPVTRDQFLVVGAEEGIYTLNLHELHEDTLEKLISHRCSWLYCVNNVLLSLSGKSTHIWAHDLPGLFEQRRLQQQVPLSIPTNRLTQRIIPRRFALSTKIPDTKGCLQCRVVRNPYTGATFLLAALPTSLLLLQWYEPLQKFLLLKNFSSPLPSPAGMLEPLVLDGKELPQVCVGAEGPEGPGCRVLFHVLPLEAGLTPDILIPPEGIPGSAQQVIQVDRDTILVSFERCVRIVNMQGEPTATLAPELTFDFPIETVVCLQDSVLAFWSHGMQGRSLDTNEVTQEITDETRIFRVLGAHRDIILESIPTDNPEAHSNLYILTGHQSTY
T8 sequence (Q9NYY3 whole entry): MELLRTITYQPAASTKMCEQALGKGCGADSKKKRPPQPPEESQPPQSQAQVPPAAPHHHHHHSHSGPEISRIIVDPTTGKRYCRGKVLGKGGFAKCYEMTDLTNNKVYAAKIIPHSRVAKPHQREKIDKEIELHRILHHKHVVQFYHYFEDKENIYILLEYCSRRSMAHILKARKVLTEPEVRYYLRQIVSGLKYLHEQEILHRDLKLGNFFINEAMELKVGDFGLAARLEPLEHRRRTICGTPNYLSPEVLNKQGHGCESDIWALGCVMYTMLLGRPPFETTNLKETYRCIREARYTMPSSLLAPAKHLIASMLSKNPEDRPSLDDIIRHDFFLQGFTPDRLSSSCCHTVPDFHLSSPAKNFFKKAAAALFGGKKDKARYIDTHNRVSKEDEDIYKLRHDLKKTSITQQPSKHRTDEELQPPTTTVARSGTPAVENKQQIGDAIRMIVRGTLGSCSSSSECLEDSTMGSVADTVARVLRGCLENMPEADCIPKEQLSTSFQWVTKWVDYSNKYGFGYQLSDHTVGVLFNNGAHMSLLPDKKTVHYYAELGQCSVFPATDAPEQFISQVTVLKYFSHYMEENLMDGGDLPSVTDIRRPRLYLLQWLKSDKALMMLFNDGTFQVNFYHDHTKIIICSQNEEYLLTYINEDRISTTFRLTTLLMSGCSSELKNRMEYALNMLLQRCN
T18 sequence (O75676 whole entry): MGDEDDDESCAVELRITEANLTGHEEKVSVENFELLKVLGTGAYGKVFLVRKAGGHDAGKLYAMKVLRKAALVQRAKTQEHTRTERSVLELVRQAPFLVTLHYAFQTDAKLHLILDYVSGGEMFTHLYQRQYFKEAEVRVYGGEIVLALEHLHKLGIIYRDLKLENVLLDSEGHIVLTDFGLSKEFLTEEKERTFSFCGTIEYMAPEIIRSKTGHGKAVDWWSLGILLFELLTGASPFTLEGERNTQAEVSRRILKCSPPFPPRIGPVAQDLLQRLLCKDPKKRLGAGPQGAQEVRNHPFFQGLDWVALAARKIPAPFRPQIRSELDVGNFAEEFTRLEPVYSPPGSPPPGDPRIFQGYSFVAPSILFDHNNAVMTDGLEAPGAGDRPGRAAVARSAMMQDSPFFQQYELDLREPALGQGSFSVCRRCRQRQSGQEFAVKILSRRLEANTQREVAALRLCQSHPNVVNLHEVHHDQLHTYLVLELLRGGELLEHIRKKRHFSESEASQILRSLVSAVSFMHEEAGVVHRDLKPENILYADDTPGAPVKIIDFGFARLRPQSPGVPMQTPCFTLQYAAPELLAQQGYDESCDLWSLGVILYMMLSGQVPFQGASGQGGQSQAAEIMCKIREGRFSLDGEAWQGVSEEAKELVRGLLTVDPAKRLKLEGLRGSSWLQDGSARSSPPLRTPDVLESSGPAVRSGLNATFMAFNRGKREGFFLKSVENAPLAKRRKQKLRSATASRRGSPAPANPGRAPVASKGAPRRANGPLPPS
T9 sequence (Q02763 23-1124 Y897S): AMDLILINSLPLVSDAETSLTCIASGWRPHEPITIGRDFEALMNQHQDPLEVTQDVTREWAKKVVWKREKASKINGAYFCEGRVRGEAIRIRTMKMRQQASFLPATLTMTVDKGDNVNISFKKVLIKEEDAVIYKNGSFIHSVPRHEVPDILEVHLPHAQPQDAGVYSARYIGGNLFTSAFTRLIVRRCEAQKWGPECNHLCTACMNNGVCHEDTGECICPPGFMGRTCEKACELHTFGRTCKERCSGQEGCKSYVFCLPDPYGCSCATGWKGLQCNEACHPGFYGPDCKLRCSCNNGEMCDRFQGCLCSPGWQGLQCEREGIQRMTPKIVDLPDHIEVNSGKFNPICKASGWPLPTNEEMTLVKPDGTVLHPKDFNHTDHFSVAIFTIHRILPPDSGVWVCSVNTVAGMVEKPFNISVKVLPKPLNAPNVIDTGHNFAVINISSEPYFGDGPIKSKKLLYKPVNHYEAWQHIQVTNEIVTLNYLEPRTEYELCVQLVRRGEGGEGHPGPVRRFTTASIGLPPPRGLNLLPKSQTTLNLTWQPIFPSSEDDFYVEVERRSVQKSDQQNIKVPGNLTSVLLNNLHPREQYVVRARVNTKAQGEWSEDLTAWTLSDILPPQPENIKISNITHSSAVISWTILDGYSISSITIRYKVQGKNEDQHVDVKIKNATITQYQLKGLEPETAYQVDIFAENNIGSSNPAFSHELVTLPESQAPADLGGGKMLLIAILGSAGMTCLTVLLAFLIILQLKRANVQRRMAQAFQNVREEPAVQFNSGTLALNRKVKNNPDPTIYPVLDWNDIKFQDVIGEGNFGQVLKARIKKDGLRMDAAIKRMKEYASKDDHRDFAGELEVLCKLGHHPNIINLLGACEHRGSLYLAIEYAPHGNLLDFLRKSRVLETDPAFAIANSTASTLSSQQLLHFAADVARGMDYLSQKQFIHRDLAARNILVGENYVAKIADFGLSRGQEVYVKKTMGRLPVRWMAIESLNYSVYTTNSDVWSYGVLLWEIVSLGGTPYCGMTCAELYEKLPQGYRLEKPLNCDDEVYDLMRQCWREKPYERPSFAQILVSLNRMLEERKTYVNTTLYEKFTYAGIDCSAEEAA
T5 sequence (Q15349 whole entry): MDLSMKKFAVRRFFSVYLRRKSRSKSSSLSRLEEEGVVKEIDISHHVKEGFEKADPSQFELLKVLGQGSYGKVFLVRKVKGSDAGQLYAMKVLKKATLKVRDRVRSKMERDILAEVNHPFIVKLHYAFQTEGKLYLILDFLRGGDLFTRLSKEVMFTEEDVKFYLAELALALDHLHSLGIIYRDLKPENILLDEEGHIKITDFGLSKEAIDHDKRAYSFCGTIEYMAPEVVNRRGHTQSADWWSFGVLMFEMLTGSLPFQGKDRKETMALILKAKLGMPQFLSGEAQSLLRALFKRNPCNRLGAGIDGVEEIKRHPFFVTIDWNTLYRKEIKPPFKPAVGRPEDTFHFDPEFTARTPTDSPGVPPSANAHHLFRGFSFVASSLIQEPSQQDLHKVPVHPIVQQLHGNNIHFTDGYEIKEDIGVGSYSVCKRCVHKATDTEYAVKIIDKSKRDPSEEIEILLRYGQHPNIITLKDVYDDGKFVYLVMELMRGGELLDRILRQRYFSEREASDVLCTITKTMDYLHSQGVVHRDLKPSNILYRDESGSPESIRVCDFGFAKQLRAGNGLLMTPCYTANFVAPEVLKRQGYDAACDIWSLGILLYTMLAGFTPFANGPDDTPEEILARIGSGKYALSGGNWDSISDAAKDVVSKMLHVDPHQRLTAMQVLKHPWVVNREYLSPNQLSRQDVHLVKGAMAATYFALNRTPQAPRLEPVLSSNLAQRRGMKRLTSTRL
T13 sequence (Q9HBH9 whole entry): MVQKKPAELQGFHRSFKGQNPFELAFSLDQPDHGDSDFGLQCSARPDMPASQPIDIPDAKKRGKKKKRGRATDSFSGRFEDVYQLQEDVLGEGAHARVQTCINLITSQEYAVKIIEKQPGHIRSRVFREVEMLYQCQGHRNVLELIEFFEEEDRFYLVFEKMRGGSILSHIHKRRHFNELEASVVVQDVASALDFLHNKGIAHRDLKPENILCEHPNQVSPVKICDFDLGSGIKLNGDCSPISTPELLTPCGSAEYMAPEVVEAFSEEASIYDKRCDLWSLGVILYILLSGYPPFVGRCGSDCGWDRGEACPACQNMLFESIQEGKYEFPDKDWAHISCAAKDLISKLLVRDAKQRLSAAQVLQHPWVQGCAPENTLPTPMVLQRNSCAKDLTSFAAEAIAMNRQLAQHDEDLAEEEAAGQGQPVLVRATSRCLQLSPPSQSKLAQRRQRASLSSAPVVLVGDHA

Row | Compound | activity at 20 µM [1] [%] | activity at 20 µM [2] [%] | activity at 20 µM [3] [%] | activity at 20 µM [4] [%] | activity at 20 µM [5] [%] | activity at 20 µM [6] [%] | activity at 20 µM [7] [%] | activity at 20 µM [8] [%] | activity at 20 µM [9] [%] | activity at 20 µM [10] [%] | activity at 20 µM [11] [%] | activity at 20 µM [12] [%] | activity at 20 µM [13] [%] | activity at 20 µM [14] [%] | activity at 20 µM [15] [%] | activity at 20 µM [16] [%] | activity at 20 µM [17] [%] | activity at 20 µM [18] [%] | activity at 20 µM [19] [%] | activity at 20 µM [20] [%] | further results
1 | CN(C)c1cc(-c2ccncc2)c(-c2ccc3ccccc3c2)nn1 [MW108, N, N-dimethyl-6-(naphthalen-2-yl)-5-(pyridin-4-yl)pyridazin-3-amine] | 91 | 104 | 92 | 101 | 83 | 97 | 101 | 98 | 95 | 84 | 92 | 5 | 36 | 99 | 83 | 54 | 98 | 103 | 91 | 109 | IC50 [12]: 1.26 µM; IC50 [13]: 16.2 µM; activity at 20 µM [21]: 96%; activity at 20 µM [22]: 99%
2 | CN(C)c1cc(-c2ccncc2)c(-c2cccc3ccccc23)nn1 [MW181, N,N-dimethyl-6-(naphthalen-1-yl)-5-(pyridin-4-yl)pyridazin-3-amine] | 94 | 102 | 90 | 98 | 114 | 91 | 101 | 99 | 95 | 100 | 99 | 12 | 92 | 99 | 86 | 100 | 111 | 101 | 99 | 102 | IC50 ([12]; concentration-dependent follow-up of profiler hit, read-out: IC50): 2.4 µM; activity at 20 µM [21]: 102%; activity at 20 µM [22]: 101%
